Ki data for 42 molecules are collected here from BindingDB's records for doi:10.1021/jm010087e (The University of Western Australia, 2001).

The nature of the test: Inhibitory activity against clostridium histolyticum collagenase.

For the molecule `CC(C(=O)NO)N(Cc1ccccc1[N+](=O)[O-])S(=O)(=O)c1cc(Cl)cc(Cl)c1O` (configuration not stated) [2-[(3,5-Dichloro-2-hydroxy-benzenesulfonyl)-(2-nitro-benzyl)-amino]-N-hydroxy-propionamide], the affinity, expressed as Ki, was 0.01 µM. This counts as double-digit nanomolar. Molecule `CC(C(=O)O)N(Cc1ccccc1[N+](=O)[O-])S(=O)(=O)c1cc(Cl)cc(Cl)c1O` (configuration not stated) [2-[(3,5-Dichloro-2-hydroxy-benzenesulfonyl)-(2-nitro-benzyl)-amino]-propionic acid] registered a Ki of 2.7 µM. Compared with the last molecule, the Ki is about 270-fold higher. `CC(C(=O)NO)N(Cc1ccccc1[N+](=O)[O-])S(=O)(=O)c1ccc([N+](=O)[O-])c(Cl)c1` (configuration not stated) [2-[(3-Chloro-4-nitro-benzenesulfonyl)-(2-nitro-benzyl)-amino]-N-hydroxy-propionamide] came in with a Ki of 0.009 µM. Next, `CC(C(=O)O)N(Cc1ccccc1[N+](=O)[O-])S(=O)(=O)c1ccc([N+](=O)[O-])c(Cl)c1` (configuration not stated) [2-[(3-Chloro-4-nitro-benzenesulfonyl)-(2-nitro-benzyl)-amino]-propionic acid]: 3.1 µM; `CC(C(=O)O)N(Cc1ccccc1[N+](=O)[O-])S(=O)(=O)c1cccc([N+](=O)[O-])c1` (configuration not stated) [2-[(3-Nitro-benzenesulfonyl)-(2-nitro-benzyl)-amino]-propionic acid]: 5.2 µM. The same measure for `COc1ccc(S(=O)(=O)N(Cc2ccccc2[N+](=O)[O-])C(C)C(=O)O)cc1NC(=O)OC(C)(C)C` (configuration not stated) [2-[(3-tert-Butoxycarbonylamino-4-methoxy-benzenesulfonyl)-(2-nitro-benzyl)-amino]-propionic acid]: 2.5 µM. Consider `CC(C(=O)O)N(Cc1ccccc1[N+](=O)[O-])S(=O)(=O)c1cccc(NC(=O)OC(C)(C)C)c1` (configuration not stated) [2-[(3-tert-Butoxycarbonylamino-benzenesulfonyl)-(2-nitro-benzyl)-amino]-propionic acid], for which the Ki amounted to 2.5 µM. With `CC(=O)c1ccc(S(=O)(=O)N(Cc2ccccc2[N+](=O)[O-])C(C)C(=O)NO)cc1` (configuration not stated) [2-[(4-Acetyl-benzenesulfonyl)-(2-nitro-benzyl)-amino]-N-hydroxy-propionamide], affinity was put at a Ki of 0.01 µM.

`CC(=O)c1ccc(S(=O)(=O)N(Cc2ccccc2[N+](=O)[O-])C(C)C(=O)O)cc1` (configuration not stated) [2-[(4-Acetyl-benzenesulfonyl)-(2-nitro-benzyl)-amino]-propionic acid] came in with a Ki of 2 µM. The same measure for `CC(=O)Nc1ccc(S(=O)(=O)N(Cc2ccccc2[N+](=O)[O-])C(C)C(=O)NO)cc1` (configuration not stated) [2-[(4-Acetylamino-benzenesulfonyl)-(2-nitro-benzyl)-amino]-N-hydroxy-propionamide]: 0.012 µM. The same measure for `CC(=O)Nc1ccc(S(=O)(=O)N(Cc2ccccc2[N+](=O)[O-])C(C)C(=O)O)cc1` (configuration not stated) [2-[(4-Acetylamino-benzenesulfonyl)-(2-nitro-benzyl)-amino]-propionic acid]: 3.3 µM; for `CC(C(=O)NO)N(Cc1ccccc1[N+](=O)[O-])S(=O)(=O)c1ccc(Br)cc1` (configuration not stated) [2-[(4-Bromo-benzenesulfonyl)-(2-nitro-benzyl)-amino]-N-hydroxy-propionamide]: 0.033 µM. The molecule `CC(C(=O)O)N(Cc1ccccc1[N+](=O)[O-])S(=O)(=O)c1ccc(Br)cc1` (configuration not stated) [2-[(4-Bromo-benzenesulfonyl)-(2-nitro-benzyl)-amino]-propionic acid] returned a Ki of 10 µM. Against the preceding molecule, the Ki is about 300-fold higher. The same measure for `CC(C(=O)NO)N(Cc1ccccc1[N+](=O)[O-])S(=O)(=O)c1ccc(Cl)cc1` (configuration not stated) [2-[(4-Chloro-benzenesulfonyl)-(2-nitro-benzyl)-amino]-N-hydroxy-propionamide]: 0.032 µM.

In turn, `CC(C(=O)O)N(Cc1ccccc1[N+](=O)[O-])S(=O)(=O)c1ccc(Cl)cc1` (configuration not stated) [2-[(4-Chloro-benzenesulfonyl)-(2-nitro-benzyl)-amino]-propionic acid] registered a Ki of 11 µM. Next, `CC(C(=O)NO)N(Cc1ccccc1[N+](=O)[O-])S(=O)(=O)c1ccc(F)cc1` (configuration not stated) [2-[(4-Fluoro-benzenesulfonyl)-(2-nitro-benzyl)-amino]-N-hydroxy-propionamide]: 0.03 µM; `CC(C(=O)O)N(Cc1ccccc1[N+](=O)[O-])S(=O)(=O)c1ccc(F)cc1` (configuration not stated) [2-[(4-Fluoro-benzenesulfonyl)-(2-nitro-benzyl)-amino]-propionic acid]: 12 µM. Next, `CC(C(=O)O)N(Cc1ccccc1[N+](=O)[O-])S(=O)(=O)c1ccc(I)cc1` (configuration not stated) [2-[(4-Iodo-benzenesulfonyl)-(2-nitro-benzyl)-amino]-propionic acid]: 11 µM; `COc1ccc(S(=O)(=O)N(Cc2ccccc2[N+](=O)[O-])C(C)C(=O)O)cc1` (configuration not stated) [2-[(4-Methoxy-benzenesulfonyl)-(2-nitro-benzyl)-amino]-propionic acid]: 5.7 µM.

The molecule `CC(C(=O)O)N(Cc1ccccc1[N+](=O)[O-])S(=O)(=O)c1ccc([N+](=O)[O-])cc1` (configuration not stated) [2-[(4-Nitro-benzenesulfonyl)-(2-nitro-benzyl)-amino]-propionic acid] came in with a Ki of 5 µM. This Ki and that of the molecule before are within 1.5-fold of each other.

Molecule `CC(C(=O)O)N(Cc1ccccc1[N+](=O)[O-])S(=O)(=O)c1ccc(NC(=O)OC(C)(C)C)cc1` (configuration not stated) [2-[(4-tert-Butoxycarbonylamino-benzenesulfonyl)-(2-nitro-benzyl)-amino]-propionic acid] showed a Ki of 2.6 µM. Next, `CC(C(=O)NO)N(Cc1ccccc1[N+](=O)[O-])S(=O)(=O)c1cccc2c(N(C)C)cccc12` (configuration not stated) [2-[(5-Dimethylamino-naphthalene-1-sulfonyl)-(2-nitro-benzyl)-amino]-N-hydroxy-propionamide]: 0.009 µM; `CC(C(=O)O)N(Cc1ccccc1[N+](=O)[O-])S(=O)(=O)c1cccc2c(N(C)C)cccc12` (configuration not stated) [2-[(5-Dimethylamino-naphthalene-1-sulfonyl)-(2-nitro-benzyl)-amino]-propionic acid]: 2.1 µM.

In the case of `CC(C(=O)NO)N(Cc1ccccc1[N+](=O)[O-])S(=O)(=O)C(F)(F)C(F)(F)C(F)(F)C(F)(F)C(F)(F)C(F)(F)C(F)(F)C(F)(F)F` (configuration not stated) [2-[(Heptadecafluorooctane-1-sulfonyl)-(2-nitro-benzyl)-amino]-N-hydroxy-propionamide], the affinity, expressed as Ki, was 0.008 µM. The same measure for `CC(C(=O)O)N(Cc1ccccc1[N+](=O)[O-])S(=O)(=O)C(F)(F)C(F)(F)C(F)(F)C(F)(F)C(F)(F)C(F)(F)C(F)(F)C(F)(F)F` (configuration not stated) [2-[(Heptadecafluorooctane-1-sulfonyl)-(2-nitro-benzyl)-amino]-propionic acid]: 1.7 µM. Next, `CC(C(=O)O)N(Cc1ccccc1[N+](=O)[O-])S(=O)(=O)c1cccc2ccccc12` (configuration not stated) [2-[(Naphthalene-1-sulfonyl)-(2-nitro-benzyl)-amino]-propionic acid]: 1.6 µM; `CC(C(=O)O)N(Cc1ccccc1[N+](=O)[O-])S(=O)(=O)c1ccc2ccccc2c1` (configuration not stated) [2-[(Naphthalene-2-sulfonyl)-(2-nitro-benzyl)-amino]-propionic acid]: 1.8 µM; `Cc1ccccc1S(=O)(=O)NC(=O)N(Cc1ccccc1[N+](=O)[O-])C(C)C(=O)O` (configuration not stated) [2-[({[(2-methylphenyl)sulfonyl]amino}carbonyl)(2-nitrobenzyl)amino]propanoic acid]: 3 µM. The same measure for `CC(C(=O)NO)N(Cc1ccccc1[N+](=O)[O-])C(=O)NS(=O)(=O)c1ccc(Cl)cc1` (configuration not stated) [2-[({[(4-chlorophenyl)sulfonyl]amino}carbonyl)(2-nitrobenzyl)amino]-N-hydroxypropanamide]: 0.007 µM.

For `CC(C(=O)O)N(Cc1ccccc1[N+](=O)[O-])C(=O)NS(=O)(=O)c1ccc(Cl)cc1` (configuration not stated) [2-[({[(4-chlorophenyl)sulfonyl]amino}carbonyl)(2-nitrobenzyl)amino]propanoic acid], the Ki came to 2.7 µM. Next, `CC(C(=O)NO)N(Cc1ccccc1[N+](=O)[O-])C(=O)NS(=O)(=O)c1ccc(F)cc1` (configuration not stated) [2-[({[(4-fluorophenyl)sulfonyl]amino}carbonyl)(2-nitrobenzyl)amino]-N-hydroxypropanamide]: 0.008 µM; `CC(C(=O)O)N(Cc1ccccc1[N+](=O)[O-])C(=O)NS(=O)(=O)c1ccc(F)cc1` (configuration not stated) [2-[({[(4-fluorophenyl)sulfonyl]amino}carbonyl)(2-nitrobenzyl)amino]propanoic acid]: 3 µM. Next, `Cc1ccc(S(=O)(=O)NC(=O)N(Cc2ccccc2[N+](=O)[O-])C(C)C(=O)O)cc1` (configuration not stated) [2-[({[(4-methylphenyl)sulfonyl]amino}carbonyl)(2-nitrobenzyl)amino]propanoic acid]: 3.1 µM; `CC(C(=O)NO)N(Cc1ccccc1[N+](=O)[O-])S(=O)(=O)c1ccccc1` (configuration not stated) [2-[Benzenesulfonyl-(2-nitro-benzyl)-amino]-N-hydroxy-propionamide]: 0.059 µM; `CC(C(=O)O)N(Cc1ccccc1[N+](=O)[O-])S(=O)(=O)c1ccccc1` (configuration not stated) [2-[Benzenesulfonyl-(2-nitro-benzyl)-amino]-propionic acid]: 27 µM. Next, `CC(C(=O)O)N(Cc1ccccc1[N+](=O)[O-])S(C)(=O)=O` (configuration not stated) [2-[Methanesulfonyl-(2-nitro-benzyl)-amino]-propionic acid]: 22 µM; `CC(C(=O)NO)N(Cc1ccccc1[N+](=O)[O-])S(=O)(=O)N(C)C` (configuration not stated) [2-[[(dimethylamino)sulfonyl](2-nitrobenzyl)amino]-N-hydroxypropanamide]: 0.079 µM; `CC(C(=O)O)N(Cc1ccccc1[N+](=O)[O-])S(=O)(=O)N(C)C` (configuration not stated) [2-[[(dimethylamino)sulfonyl](2-nitrobenzyl)amino]propanoic acid]: 43 µM. The molecule `CC(C(=O)O)N(Cc1ccccc1[N+](=O)[O-])S(=O)(=O)c1cccc(C(=O)O)c1` (configuration not stated) [3-[(1-Carboxy-ethyl)-(2-nitro-benzyl)-sulfamoyl]-benzoic acid] registered a Ki of 2.1 µM. This Ki lies about 20-fold lower than the previous one. Molecule `CC(C(=O)NO)N(Cc1ccccc1[N+](=O)[O-])S(=O)(=O)c1cccc(C(=O)O)c1` (configuration not stated) [3-[(1-Hydroxycarbamoyl-ethyl)-(2-nitro-benzyl)-sulfamoyl]-benzoic acid] yielded a Ki of 0.008 µM.

Molecule `CC(C(=O)O)N(Cc1ccccc1[N+](=O)[O-])S(=O)(=O)c1ccc(C(=O)O)cc1` (configuration not stated) [4-[(1-Carboxy-ethyl)-(2-nitro-benzyl)-sulfamoyl]-benzoic acid] gave a Ki of 1.9 µM. Next, `CC(C(=O)NO)N(Cc1ccccc1[N+](=O)[O-])S(=O)(=O)c1ccc(C(=O)O)cc1` (configuration not stated) [4-[(1-Hydroxycarbamoyl-ethyl)-(2-nitro-benzyl)-sulfamoyl]-benzoic acid]: 0.007 µM.
